Test results reported in ChEMBL document CHEMBL3421577, “Discovery and biological evaluation of tetrahydrothieno[2,3-c]pyridine derivatives as selective metabotropic glutamate receptor 1 antagonists for the potential treatment of neuropathic pain” (Eur J Med Chem, 2015).

What was measured:
[1] = Plasma concentration in Sprague-Dawley rat at 10 mg/kg, iv measured at 8 hrs by LC-MS/MS analysis; type: ADME, organism-based; design: dose 10 mg/kg, route intravenous
[2] = Plasma concentration in Sprague-Dawley rat at 10 mg/kg, po measured at 8 hrs by LC-MS/MS analysis; type: ADME, organism-based; design: dose 10 mg/kg, route oral
[3] = Ratio of drug level in brain to plasma in Sprague-Dawley rat at 10 mg/kg, iv measured at 2 hrs by LC-MS/MS analysis; type: ADME, organism-based; design: dose 10 mg/kg, route intravenous; conditions: read-out: BPR
[4] = Plasma concentration in Sprague-Dawley rat at 10 mg/kg, po measured at 2 hrs by LC-MS/MS analysis; type: ADME, organism-based; design: dose 10 mg/kg, route oral
[5] = Terminal half life in Sprague-Dawley rat at 10 mg/kg, po by LC-MS/MS analysis; type: ADME, organism-based; design: dose 10 mg/kg, route oral; conditions: in vivo, read-out: beta t1/2
Rattus norvegicus [6] = test: Analgesic activity in rat spinal nerve ligation model of neuropathic pain assessed as recovery from mechanical allodynia at 100 mg/kg, po administered on day 14 post ligation surgery measured after 3 hrs relative to control; type: functional
[7] = Drug excretion in Sprague-Dawley rat at 10 mg/kg, po by LC-MS/MS analysis; type: ADME, organism-based; design: dose 10 mg/kg, route oral; conditions: in vivo, read-out: Drug excretion
[8] = target: Substance-P receptor (Homo sapiens) (UniProt P25103); test: Antagonist activity at NK1 receptor (unknown origin) at 10 uM relative to control
Sequence of Substance-P receptor (Homo sapiens) (P25103 whole entry): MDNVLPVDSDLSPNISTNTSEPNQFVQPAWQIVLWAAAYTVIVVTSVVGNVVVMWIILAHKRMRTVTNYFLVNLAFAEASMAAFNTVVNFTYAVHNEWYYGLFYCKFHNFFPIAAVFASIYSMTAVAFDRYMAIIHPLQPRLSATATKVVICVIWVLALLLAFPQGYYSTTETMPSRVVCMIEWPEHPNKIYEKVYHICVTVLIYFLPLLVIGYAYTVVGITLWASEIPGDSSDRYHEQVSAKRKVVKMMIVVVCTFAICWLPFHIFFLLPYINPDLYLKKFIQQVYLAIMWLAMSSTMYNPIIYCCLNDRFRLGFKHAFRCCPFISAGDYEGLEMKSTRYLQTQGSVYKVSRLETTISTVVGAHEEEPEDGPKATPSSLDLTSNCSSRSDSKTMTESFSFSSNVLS

[9] = Drug uptake in Sprague-Dawley rat brain at 10 mg/kg, iv measured at 2 hrs by LC-MS/MS analysis; type: ADME, organism-based; design: dose 10 mg/kg, route intravenous; conditions: read-out: Drug uptake
[10] = target: Muscarinic acetylcholine receptor M5 (Homo sapiens) (UniProt P08912); test: Agonist activity at M5 receptor (unknown origin) at 12.5 uM relative to control
Sequence of Muscarinic acetylcholine receptor M5 (Homo sapiens) (P08912 whole entry): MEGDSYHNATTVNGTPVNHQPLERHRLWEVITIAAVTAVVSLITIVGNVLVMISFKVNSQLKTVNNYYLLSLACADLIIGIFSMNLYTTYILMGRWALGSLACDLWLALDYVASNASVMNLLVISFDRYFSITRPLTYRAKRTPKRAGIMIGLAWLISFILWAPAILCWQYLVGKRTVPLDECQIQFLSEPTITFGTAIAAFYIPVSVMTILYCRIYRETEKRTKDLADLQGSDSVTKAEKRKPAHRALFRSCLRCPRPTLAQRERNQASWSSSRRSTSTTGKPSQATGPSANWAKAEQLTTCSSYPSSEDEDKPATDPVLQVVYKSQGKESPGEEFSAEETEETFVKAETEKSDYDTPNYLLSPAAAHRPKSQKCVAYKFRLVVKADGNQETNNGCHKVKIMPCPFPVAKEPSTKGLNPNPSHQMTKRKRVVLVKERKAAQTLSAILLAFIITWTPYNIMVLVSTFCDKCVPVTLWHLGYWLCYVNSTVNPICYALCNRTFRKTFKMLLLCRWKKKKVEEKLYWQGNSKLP

[11] = Bioavailability in Sprague-Dawley rat at 10 mg/kg, iv by LC-MS/MS analysis; type: ADME, organism-based; conditions: in vivo
[12] = target: C-X-C chemokine receptor type 4 (Homo sapiens) (UniProt P61073); test: Antagonist activity at CXCR4 (unknown origin) at 10 uM relative to control
Sequence of C-X-C chemokine receptor type 4 (Homo sapiens) (P61073 whole entry): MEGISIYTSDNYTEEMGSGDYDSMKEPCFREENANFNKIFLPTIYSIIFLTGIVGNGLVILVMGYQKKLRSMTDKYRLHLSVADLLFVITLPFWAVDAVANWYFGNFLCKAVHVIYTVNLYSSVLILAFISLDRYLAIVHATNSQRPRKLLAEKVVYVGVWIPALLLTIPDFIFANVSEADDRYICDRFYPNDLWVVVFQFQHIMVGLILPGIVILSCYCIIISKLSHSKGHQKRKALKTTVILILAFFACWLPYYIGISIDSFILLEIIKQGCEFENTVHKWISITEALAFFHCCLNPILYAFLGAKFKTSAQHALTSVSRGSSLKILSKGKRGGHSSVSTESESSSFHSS

[13] = target: T1, Metabotropic glutamate receptor 1 (Homo sapiens, UniProt Q13255); test: Antagonist activity at human mGluR1 expressed in human Chem-3 cells assessed as inhibition of L-glutamate-induced calcium release at 10 uM by calcium-5 reagent-based fluorescence assay relative to control; type: functional, cell-based
T1 sequence (Q13255 19-1194 limits assumed): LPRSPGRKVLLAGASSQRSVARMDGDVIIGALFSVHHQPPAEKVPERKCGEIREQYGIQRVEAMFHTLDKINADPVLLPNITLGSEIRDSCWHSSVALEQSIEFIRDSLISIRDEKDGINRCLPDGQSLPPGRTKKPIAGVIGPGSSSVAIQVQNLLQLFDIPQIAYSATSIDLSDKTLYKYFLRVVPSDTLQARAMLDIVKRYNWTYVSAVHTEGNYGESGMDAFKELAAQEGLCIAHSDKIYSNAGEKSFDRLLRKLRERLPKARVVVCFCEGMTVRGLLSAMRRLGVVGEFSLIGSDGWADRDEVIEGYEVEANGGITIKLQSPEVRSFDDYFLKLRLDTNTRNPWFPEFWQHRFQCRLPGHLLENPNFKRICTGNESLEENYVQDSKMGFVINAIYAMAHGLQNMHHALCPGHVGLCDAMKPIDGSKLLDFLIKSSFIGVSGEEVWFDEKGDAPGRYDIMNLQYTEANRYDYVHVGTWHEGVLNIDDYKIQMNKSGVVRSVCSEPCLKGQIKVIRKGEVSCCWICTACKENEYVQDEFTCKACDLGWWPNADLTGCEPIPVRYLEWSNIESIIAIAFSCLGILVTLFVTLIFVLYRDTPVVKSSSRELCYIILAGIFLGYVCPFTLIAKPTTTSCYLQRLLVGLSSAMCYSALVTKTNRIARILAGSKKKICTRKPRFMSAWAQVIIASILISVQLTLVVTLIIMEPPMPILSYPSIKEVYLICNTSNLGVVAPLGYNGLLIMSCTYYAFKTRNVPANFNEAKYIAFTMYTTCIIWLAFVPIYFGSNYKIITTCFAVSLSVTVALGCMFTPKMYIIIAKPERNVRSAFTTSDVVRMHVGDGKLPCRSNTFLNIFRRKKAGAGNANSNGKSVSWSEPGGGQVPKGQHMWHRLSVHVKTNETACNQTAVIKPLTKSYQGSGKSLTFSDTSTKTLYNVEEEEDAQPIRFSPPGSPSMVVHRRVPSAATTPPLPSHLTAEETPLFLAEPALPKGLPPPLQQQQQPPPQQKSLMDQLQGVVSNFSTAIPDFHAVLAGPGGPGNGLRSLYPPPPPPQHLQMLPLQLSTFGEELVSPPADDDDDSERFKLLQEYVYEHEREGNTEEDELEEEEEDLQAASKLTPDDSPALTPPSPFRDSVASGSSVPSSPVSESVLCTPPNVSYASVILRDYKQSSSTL

[14] = target: C-X-C chemokine receptor type 5 (Homo sapiens) (UniProt P32302); test: Agonist activity at CXCR5 (unknown origin) at 12.5 uM relative to control
Sequence of C-X-C chemokine receptor type 5 (Homo sapiens) (P32302 whole entry): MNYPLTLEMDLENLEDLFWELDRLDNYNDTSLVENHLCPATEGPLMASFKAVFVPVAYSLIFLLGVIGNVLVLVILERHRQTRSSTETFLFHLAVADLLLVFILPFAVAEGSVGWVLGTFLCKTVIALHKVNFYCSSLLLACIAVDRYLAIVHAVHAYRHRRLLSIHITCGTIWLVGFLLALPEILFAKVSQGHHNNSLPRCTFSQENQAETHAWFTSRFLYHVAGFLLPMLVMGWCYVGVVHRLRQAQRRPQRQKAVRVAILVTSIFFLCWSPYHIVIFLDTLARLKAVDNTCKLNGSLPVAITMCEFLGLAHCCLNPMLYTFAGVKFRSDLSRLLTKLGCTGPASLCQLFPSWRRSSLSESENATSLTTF

[15] = Plasma concentration in Sprague-Dawley rat at 10 mg/kg, iv measured at 2 hrs by LC-MS/MS analysis; type: ADME, organism-based; design: dose 10 mg/kg, route intravenous
[16] = target: Metabotropic glutamate receptor 2 (Homo sapiens) (UniProt Q14416); test: Antagonist activity at mGlu2 receptor (unknown origin) at 10 uM relative to control
[17] = target: C-C chemokine receptor type 2 (Homo sapiens) (UniProt P41597); test: Agonist activity at CCR2B (unknown origin) at 12.5 uM relative to control
Sequence of C-C chemokine receptor type 2 (Homo sapiens) (P41597 whole entry, looked up): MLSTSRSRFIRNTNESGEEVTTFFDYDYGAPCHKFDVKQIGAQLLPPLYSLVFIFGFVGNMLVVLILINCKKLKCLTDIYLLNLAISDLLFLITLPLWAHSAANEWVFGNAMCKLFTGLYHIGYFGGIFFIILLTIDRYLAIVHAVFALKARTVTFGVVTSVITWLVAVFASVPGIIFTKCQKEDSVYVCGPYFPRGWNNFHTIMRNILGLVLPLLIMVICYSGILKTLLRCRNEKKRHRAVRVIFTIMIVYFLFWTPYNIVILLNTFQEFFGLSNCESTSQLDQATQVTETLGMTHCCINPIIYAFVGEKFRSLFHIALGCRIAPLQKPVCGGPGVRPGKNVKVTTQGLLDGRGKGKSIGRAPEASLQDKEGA

[18] = target: T1, Metabotropic glutamate receptor 1; test: Antagonist activity at mGlu1 receptor (unknown origin) at 10 uM relative to control
[19] = target: C-X-C chemokine receptor type 5 (Homo sapiens) (UniProt P32302); test: Antagonist activity at CXCR5 (unknown origin) at 10 uM relative to control
[20] = target: Alpha-1A adrenergic receptor (Homo sapiens) (UniProt P35348); test: Agonist activity at ADRA1A (unknown origin) at 12.5 uM relative to control
[21] = target: Muscarinic acetylcholine receptor M5 (Homo sapiens) (UniProt P08912); test: Antagonist activity at M5 receptor (unknown origin) at 10 uM relative to control
[22] = AUC (0 to infinity) in Sprague-Dawley rat at 10 mg/kg, po by LC-MS/MS analysis; type: ADME, organism-based; design: time infinity, dose 10 mg/kg, route oral; conditions: plasma
[23] = Mean residence time in Sprague-Dawley rat at 10 mg/kg, iv by LC-MS/MS analysis; type: ADME, organism-based; design: dose 10 mg/kg, route intravenous; conditions: in vivo
CYP2D6 = CYP2D6 (Homo sapiens, UniProt P10635); test: Inhibition of recombinant human CYP2D6 assessed as remaining activity at 10 uM preincubated for 5 mins followed by substrate and NADP addition measured after 20 mins by fluorescence assay relative to control; type: ADME; conditions: read-out: Activity
Sequence of CYP2D6 (P10635 whole entry): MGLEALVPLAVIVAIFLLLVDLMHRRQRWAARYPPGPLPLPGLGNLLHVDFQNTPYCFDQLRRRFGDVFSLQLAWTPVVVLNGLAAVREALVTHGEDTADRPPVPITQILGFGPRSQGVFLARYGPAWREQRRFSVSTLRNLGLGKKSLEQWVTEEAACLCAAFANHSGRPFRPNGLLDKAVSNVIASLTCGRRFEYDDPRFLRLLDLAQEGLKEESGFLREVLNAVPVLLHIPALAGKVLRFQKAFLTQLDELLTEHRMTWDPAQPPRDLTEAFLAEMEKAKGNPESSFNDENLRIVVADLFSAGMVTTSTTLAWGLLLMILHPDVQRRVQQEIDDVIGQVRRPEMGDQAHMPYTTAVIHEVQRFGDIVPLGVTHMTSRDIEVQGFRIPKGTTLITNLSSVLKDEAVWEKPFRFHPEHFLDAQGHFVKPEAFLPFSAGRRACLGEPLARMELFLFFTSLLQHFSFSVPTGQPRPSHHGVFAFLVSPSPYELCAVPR

[24] = target: C-X-C chemokine receptor type 2 (Homo sapiens) (UniProt P25025); test: Antagonist activity at CXCR2 (unknown origin) at 10 uM relative to control
Sequence of C-X-C chemokine receptor type 2 (Homo sapiens) (P25025 whole entry): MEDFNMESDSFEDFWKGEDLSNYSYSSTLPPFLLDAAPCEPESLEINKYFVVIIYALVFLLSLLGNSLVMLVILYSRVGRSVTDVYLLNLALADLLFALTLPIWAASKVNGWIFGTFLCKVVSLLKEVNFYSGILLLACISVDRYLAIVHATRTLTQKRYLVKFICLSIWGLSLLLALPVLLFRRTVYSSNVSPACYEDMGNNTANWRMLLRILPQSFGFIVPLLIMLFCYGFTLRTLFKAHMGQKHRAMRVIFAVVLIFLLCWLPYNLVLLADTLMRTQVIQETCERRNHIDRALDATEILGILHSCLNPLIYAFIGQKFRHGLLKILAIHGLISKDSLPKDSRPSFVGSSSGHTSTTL

[25] = target: B2 bradykinin receptor (Homo sapiens) (UniProt P30411); test: Antagonist activity at BDKR2 (unknown origin) at 10 uM relative to control
Sequence of B2 bradykinin receptor (Homo sapiens) (P30411 whole entry): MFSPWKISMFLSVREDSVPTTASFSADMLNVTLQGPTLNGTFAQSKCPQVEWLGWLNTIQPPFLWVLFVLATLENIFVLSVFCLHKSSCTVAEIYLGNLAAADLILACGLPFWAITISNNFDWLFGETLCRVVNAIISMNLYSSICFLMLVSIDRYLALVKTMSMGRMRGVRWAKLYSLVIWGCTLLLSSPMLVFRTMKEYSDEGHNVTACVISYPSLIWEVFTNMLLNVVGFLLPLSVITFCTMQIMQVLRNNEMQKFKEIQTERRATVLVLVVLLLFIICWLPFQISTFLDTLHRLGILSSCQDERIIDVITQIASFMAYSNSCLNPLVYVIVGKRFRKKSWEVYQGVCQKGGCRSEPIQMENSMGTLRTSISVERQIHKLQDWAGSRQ

Rattus norvegicus [26] = test: Analgesic activity in rat spinal nerve ligation model of neuropathic pain assessed as recovery from cold allodynia at 100 mg/kg, po administered on day 14 post ligation surgery measured after 1 hr relative to control; type: functional
[27] = AUClast in Sprague-Dawley rat at 10 mg/kg, iv by LC-MS/MS analysis; type: ADME, organism-based; design: time 0 - last, dose 10 mg/kg, route intravenous; conditions: plasma
[28] = Tmax in Sprague-Dawley rat at 10 mg/kg, po by LC-MS/MS analysis; type: ADME, organism-based; design: dose 10 mg/kg, route oral; conditions: in vivo
[29] = target: Substance-P receptor (Homo sapiens) (UniProt P25103); test: Agonist activity at NK1 receptor (unknown origin) at 12.5 uM relative to control
[30] = Terminal half life in Sprague-Dawley rat at 10 mg/kg, iv by LC-MS/MS analysis; type: ADME, organism-based; design: dose 10 mg/kg, route intravenous; conditions: in vivo, read-out: beta t1/2
[31] = target: Muscarinic acetylcholine receptor M1 (Homo sapiens) (UniProt P11229); test: Antagonist activity at M1 receptor (unknown origin) at 10 uM relative to control
Sequence of Muscarinic acetylcholine receptor M1 (Homo sapiens) (P11229 whole entry): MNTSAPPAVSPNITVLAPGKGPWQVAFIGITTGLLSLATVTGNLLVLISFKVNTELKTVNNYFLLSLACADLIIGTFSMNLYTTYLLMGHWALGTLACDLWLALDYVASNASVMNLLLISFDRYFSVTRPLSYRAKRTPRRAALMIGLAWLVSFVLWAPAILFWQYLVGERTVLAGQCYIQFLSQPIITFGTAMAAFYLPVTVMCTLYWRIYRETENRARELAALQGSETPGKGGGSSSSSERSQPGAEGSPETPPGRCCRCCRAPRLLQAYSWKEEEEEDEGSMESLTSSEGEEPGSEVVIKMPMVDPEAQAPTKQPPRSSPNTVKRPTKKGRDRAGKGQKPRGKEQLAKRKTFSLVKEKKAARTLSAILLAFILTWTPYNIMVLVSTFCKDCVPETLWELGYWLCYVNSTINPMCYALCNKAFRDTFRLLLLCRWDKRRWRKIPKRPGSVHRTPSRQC

## Cc1cc(C(=O)N2CCc3c(sc(NCc4ccccc4)c3C#N)C2)[nH]n1
[1]
  concentration at 8 h: 80 ng/mL
[2]
  concentration at 8 h: 70 ng/mL
[3]
  Kp at 2 h: 0.14
[4]
  concentration at 2 h: 1190 ng/mL
[5]
  half-life: 1.48 h
Rattus norvegicus [6]
  Activity: 60%
[7]
  dose excreted: 0%
[8]
  inhibition: -2.1%
[9]
  concentration at 2 h: 138 ng/mL
[10]
  Activity: 0.9%
[11]
  bioavailability: 45.8%
[12]
  inhibition: 3.9%
[13]
  inhibition: 71.2%
[14]
  Activity: -2.9%
[15]
  concentration at 2 h: 1240 ng/mL
[16]
  inhibition: 5.8%
[17]
  Activity: -1.4%
[18]
  inhibition: 104%
[19]
  inhibition: 4.5%
[20]
  Activity: 0.3%
[21]
  inhibition: 7.7%
[22]
  AUC(0-inf): 4250 ng·h/mL
[23]
  MRT: 1.31 h
CYP2D6
  activity at 20 min, 10 µM: 33.7%
[24]
  inhibition: -4.6%
[25]
  inhibition: 10.3%
Rattus norvegicus [26]
  Activity: 90%
[27]
  AUC(0-t): 9060 ng·h/mL
[28]
  Tmax: 1.2 h
[29]
  Activity: 0.8%
[30]
  half-life: 1.83 h
[31]
  inhibition: -0.6%
